# Results published in US7598417B2, “Substituted fluoroethyl ureas as alpha 2 adrenergic agents” (Allergan, Inc., priority 2007, dated 2009).
# Read-outs that look alike come from different tables or passages of the source.
# Columns and labels:
# Format in all cases: cell-based
# alpha2C receptor = molecular target: T1, alpha2C receptor (Homo sapiens, UniProt P18825); assay: Receptor Selection and Amplification Technology (RSAT) assay, alpha2C; details: for Alpha 2C IA (intrinsic activity): ratio of maximal effect of the drug to maximal effect of standard full agonist brimonidine (UK14304)
# T1 construct: expressed in transfected cells; host or cells: NIH-3T3
# T1 sequence (P18825 1-462): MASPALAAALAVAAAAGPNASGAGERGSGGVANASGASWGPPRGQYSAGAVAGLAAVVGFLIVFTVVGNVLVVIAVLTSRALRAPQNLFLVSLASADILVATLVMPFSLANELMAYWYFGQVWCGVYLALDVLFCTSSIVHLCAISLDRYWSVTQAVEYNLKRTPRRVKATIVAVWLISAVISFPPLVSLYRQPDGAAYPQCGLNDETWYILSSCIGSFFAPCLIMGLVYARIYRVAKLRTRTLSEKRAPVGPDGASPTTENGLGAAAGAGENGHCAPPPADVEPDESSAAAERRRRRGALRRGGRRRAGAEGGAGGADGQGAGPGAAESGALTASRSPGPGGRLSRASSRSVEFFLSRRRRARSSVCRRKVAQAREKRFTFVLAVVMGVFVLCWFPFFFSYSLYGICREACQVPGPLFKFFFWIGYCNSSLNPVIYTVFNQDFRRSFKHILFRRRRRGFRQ
# Experimental: (§1) Receptor Selection and Amplification Technology (RSAT) Assay
# (§2) The RSAT assay measures a receptor-mediated loss of contact inhibition that results in selective proliferation of receptor-containing cells in a mixed population of confluent cells. The increase in cell number is assessed with an appropriate transfected marker gene such as β-galactosidase, the activity of which can be easily measured in a 96-well format. Receptors that activate the G protein, Gq, elicit this response. Alpha2 receptors, which normally couple to Gi, activate the RSAT response when coexpressed with a hybrid Gq protein that has a Gi receptor recognition domain, called Gq/i5.
# (§3) NIH-3T3 cells are plated at a density of 2×10^6 cells in 15 cm dishes and maintained in Dulbecco's modified Eagle's medium supplemented with 10% calf serum. One day later, cells are cotransfected by calcium phosphate precipitation with mammalian expression plasmids encoding p-SV-β-galactosidase (5-10 μg), receptor (1-2 μg) and G protein (1-2 μg). 40 μg salmon sperm DNA may also be included in the transfection mixture. Fresh media is added on the following day and 1-2 days later, cells are harvested and frozen in 50 assay aliquots. Cells are thawed and 100 μl added to 100 μl aliquots of various concentrations of drugs in triplicate in 96-well dishes. Incubations continue 72-96 hr at 37° C. After washing with phosphate-buffered saline, β-galactosidase enzyme activity is determined by adding 200 μl of the chromogenic substrate (consisting of 3.5 mM o-nitrophenyl-β-D-galactopyranoside and 0.5% nonidet P-40 in phosphate buffered saline), incubating overnight at 30° C. and measuring optical density at 420 nm. The absorbance is a measure of enzyme activity, which depends on cell number and reflects a receptor-mediated cell proliferation. The efficacy or intrinsic activity is calculated as a ratio of the maximal effect of the drug to the maximal effect of a standard full agonist for each receptor subtype. Brimonidine, also called UK14304, the chemical structure of which is shown below, is used as the standard agonist for the alpha2A, alpha2B and alpha2C receptors. The EC50 is the concentration at which the drug effect is half of its maximal effect.
# (§4) EC50 values are nanomolar. NA stands for “not active” at concentrations less than 10 micromolar. IA stands for “intrinsic activity.”
# alpha2A receptor = molecular target: T2, alpha2A receptor (Homo sapiens, UniProt P08913); assay: Receptor Selection and Amplification Technology (RSAT) assay, alpha2A; details: for Alpha 2A EC50: RSAT, NIH-3T3 cells cotransfected with receptor and Gq/i5, not active = not active at concentrations less than 10 micromolar
# T2 construct: expressed in transfected cells; host or cells: NIH-3T3
# T2 sequence (P08913 1-465): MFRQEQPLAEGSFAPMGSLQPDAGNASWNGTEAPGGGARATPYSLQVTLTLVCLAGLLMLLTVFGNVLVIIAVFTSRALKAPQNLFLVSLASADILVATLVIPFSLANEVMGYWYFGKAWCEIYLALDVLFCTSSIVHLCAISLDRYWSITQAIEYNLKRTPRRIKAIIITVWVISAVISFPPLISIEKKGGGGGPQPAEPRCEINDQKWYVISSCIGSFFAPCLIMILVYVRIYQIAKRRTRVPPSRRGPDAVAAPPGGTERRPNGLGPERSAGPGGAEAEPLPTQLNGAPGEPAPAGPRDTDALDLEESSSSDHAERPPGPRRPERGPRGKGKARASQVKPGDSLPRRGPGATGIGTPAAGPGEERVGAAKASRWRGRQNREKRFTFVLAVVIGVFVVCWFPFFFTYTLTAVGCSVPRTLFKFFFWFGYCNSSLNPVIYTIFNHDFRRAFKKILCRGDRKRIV
# Experimental: as §1, §2, §3, §4
# alpha2B receptor = molecular target: T3, alpha2B receptor (Homo sapiens, UniProt P18089); assay: Receptor Selection and Amplification Technology (RSAT) assay, alpha2B; details: for Alpha 2B IA (intrinsic activity): ratio of maximal effect of the drug to maximal effect of standard full agonist brimonidine (UK14304)
# T3 construct: expressed in transfected cells; host or cells: NIH-3T3
# T3 sequence (P18089 1-450): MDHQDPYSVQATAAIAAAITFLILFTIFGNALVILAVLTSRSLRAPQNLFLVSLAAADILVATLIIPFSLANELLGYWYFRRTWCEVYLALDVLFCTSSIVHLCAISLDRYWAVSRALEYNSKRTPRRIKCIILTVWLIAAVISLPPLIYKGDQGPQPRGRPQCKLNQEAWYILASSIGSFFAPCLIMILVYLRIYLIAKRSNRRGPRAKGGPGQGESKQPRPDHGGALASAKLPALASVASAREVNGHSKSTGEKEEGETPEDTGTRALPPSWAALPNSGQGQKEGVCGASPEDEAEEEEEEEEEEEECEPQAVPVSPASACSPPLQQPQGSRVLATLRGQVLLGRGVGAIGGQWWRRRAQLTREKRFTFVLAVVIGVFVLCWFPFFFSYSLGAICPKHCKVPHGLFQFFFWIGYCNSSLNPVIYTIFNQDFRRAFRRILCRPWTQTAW
# Experimental: as §1, §2, §3
# The results of the RSAT assay with several exemplary compounds of the invention are disclosed in Table 1 above together with the chemical formulas of these exemplary compounds. EC50 values are nanomolar. NA stands for “not active” at concentrations less than 10 micromolar. IA stands for “intrinsic activity.”
# [1] = RSAT, NIH-3T3 cells cotransfected with receptor and Gq/i5, not active = not active at concentrations less than 10 micromolar, read-out: Alpha 2C EC50
# [2] = RSAT, NIH-3T3 cells cotransfected with receptor and Gq/i5, not active = not active at concentrations less than 10 micromolar, read-out: Alpha 2B EC50
# [3] = RSAT, NIH-3T3 cells cotransfected with receptor and Gq/i5, not active = not active at concentrations less than 10 micromolar
SMILES,EC50 (alpha2C receptor; [1]) [nM],Alpha 2C IA (intrinsic activity) (alpha2C receptor),Alpha 2A EC50 (alpha2A receptor),EC50 (alpha2B receptor; [2]) [nM],Alpha 2B IA (intrinsic activity) (alpha2B receptor),Alpha 2C EC50 (alpha2C receptor; [3]),EC50 (alpha2C receptor) [nM],EC50 (alpha2A receptor) [nM],Alpha 2A IA (intrinsic activity) (alpha2A receptor; ratio of maximal effect of the drug to maximal effect of standard full agonist brimonidine (UK14304)),EC50 (alpha2B receptor) [nM],Alpha 2B EC50 (alpha2B receptor; [3])
O=C(NCCF)NC1Cc2ccccc2C1,246,0.48,not active,18,0.92,,,,,,
CC1Cc2ccccc2C1NC(=O)NCCF (stereo not drawn),,,not active,26.4,0.85,not active,,,,,
Cc1ccc2c(c1)C(NC(=O)NCCF)CC2 (stereo not drawn),807,0.31,not active,32,0.88,,,,,,
COc1ccc2c(c1)C(NC(=O)NCCF)CC2 (stereo not drawn),1460,0.31,not active,300,0.81,,,,,,
COc1ccc2c(c1)C(NC(=O)NCCF)CCC2 (stereo not drawn),,,not active,824,0.78,not active,,,,,
O=C(NCCF)NC1CCc2ccccc2C1 (stereo not drawn),,,not active,226,0.63,not active,,,,,
O=C(NCCF)NC1CCc2cc(Cl)ccc21 (stereo not drawn),,,not active,845,0.31,not active,,,,,
O=C(NCCF)NC1CCc2cc(Br)ccc21 (stereo not drawn),1260,0.31,not active,2620,0.31,,,,,,
Cc1c(Cl)ccc2c1C(NC(=O)NCCF)CC2 (stereo not drawn),,,not active,85,0.6,not active,,,,,
CCc1cccc2c1CCC2NC(=O)NCCF (stereo not drawn),103,0.47,not active,10.6,0.99,,,,,,
O=C(NCCF)NC1CCc2ccc(F)c(F)c21 (stereo not drawn),117,0.53,not active,18.7,0.97,,,,,,
Cc1c(Br)ccc2c1C(NC(=O)NCCF)CC2 (stereo not drawn),,,not active,238,0.37,not active,,,,,
O=C(NCCF)NC1CCCc2occc21 (stereo not drawn),453,0.44,not active,90,0.81,,,,,,
O=C(NCCF)NC1CCCc2sccc21 (stereo not drawn),40,0.52,not active,9.6,0.86,,,,,,
O=C(NCCF)NC1CCc2cccnc21 (stereo not drawn),,,not active,3080,0.81,not active,,,,,
CCC1=C(C)C(NC(=O)NCCF)CC1 (stereo not drawn),886,0.37,not active,319,0.88,,,,,,
CC1=CCCCC1NC(=O)NCCF (stereo not drawn),453,0.58,not active,74,0.9,,,,,,
CCC1=CCCCC1NC(=O)NCCF (stereo not drawn),,0.59,,,1.22,,348,184,0.64,45,
CC1=C(C)C(NC(=O)NCCF)CCC1 (stereo not drawn),513,0.52,not active,19.7,0.76,,,,,,
O=C(NCCF)NC1C=C(CO)CCC1 (stereo not drawn),2600,0.4,not active,1260,0.58,,,,,,
CC1=C(C=O)CCCC1NC(=O)NCCF (stereo not drawn),3620,0.32,not active,2580,0.81,,,,,,
CC1=CC(NC(=O)NCCF)CCC1 (stereo not drawn),520,0.4,not active,225,0.42,,,,,,
CCC1=CC(NC(=O)NCCF)CCC1 (stereo not drawn),346,0.32,not active,,,,,,,,not active
